Reference: patent publication US20070037820A1, “Substituted piperazines as metabotropic glutamate receptor antagonists” (AstraZeneca AB, priority 2005, published 2007)

Target: T1, human mGluR5d (Homo sapiens, UniProt P41594)
T1 construct: expressed in transfected cells; host or cells: GHEK (Human Embryonic Kidney cells expressing glutamate transporter) for the IP3 assay
Experiment: Functional assessment of mGluR5 antagonism in cell lines expressing mGluR5d (FLIPR calcium mobilization / IP3 turnover; which assay gave the values is not stated)
Format: cell-based
Settings: cells expressing human mGluR5d; assay (FLIPR or IP3) not specified
Description: The pharmacological properties of the compounds of the invention can be analyzed using standard assays for functional activity. Examples of glutamate receptor assays are well known in the art as described in for example Aramori et al., Neuron 8:757 (1992), Tanabe et al., Neuron 8:169 (1992), Miller et al., J. Neuroscience 15: 6103 (1995), Balazs, et al., J. Neurochemistry 69:151 (1997). The methodology described in these publications is incorporated herein by reference. Conveniently, the compounds of the invention can be studied by means of an assay that measures the mobilization of intracellular calcium, [Ca^2+]i in cells expressing mGluR5.
Intracellular calcium mobilization was measured by detecting changes in fluorescence of cells loaded with the fluorescent indicator fluo-3. Fluorescent signals were measured using the FLIPR system (Molecular Devices). […]
FLIPR experiments were done using a laser setting of 0.800 W and a 0.4 second CCD camera shutter speed. […] After each addition of the compound, the fluorescence signal was sampled 50 times at 1 second intervals followed by 3 samples at 5 second intervals. Responses were measured as the peak height of the response within the sample period. […]
We have validated a secondary functional assay for mGluR5d based on Inositol Phosphate (IP3) turnover. IP3 accumulation is measured as an index of receptor mediated phospholipase C turnover. […]

T1 sequence (P41594 21-942 isoform P41594-3 limits assumed): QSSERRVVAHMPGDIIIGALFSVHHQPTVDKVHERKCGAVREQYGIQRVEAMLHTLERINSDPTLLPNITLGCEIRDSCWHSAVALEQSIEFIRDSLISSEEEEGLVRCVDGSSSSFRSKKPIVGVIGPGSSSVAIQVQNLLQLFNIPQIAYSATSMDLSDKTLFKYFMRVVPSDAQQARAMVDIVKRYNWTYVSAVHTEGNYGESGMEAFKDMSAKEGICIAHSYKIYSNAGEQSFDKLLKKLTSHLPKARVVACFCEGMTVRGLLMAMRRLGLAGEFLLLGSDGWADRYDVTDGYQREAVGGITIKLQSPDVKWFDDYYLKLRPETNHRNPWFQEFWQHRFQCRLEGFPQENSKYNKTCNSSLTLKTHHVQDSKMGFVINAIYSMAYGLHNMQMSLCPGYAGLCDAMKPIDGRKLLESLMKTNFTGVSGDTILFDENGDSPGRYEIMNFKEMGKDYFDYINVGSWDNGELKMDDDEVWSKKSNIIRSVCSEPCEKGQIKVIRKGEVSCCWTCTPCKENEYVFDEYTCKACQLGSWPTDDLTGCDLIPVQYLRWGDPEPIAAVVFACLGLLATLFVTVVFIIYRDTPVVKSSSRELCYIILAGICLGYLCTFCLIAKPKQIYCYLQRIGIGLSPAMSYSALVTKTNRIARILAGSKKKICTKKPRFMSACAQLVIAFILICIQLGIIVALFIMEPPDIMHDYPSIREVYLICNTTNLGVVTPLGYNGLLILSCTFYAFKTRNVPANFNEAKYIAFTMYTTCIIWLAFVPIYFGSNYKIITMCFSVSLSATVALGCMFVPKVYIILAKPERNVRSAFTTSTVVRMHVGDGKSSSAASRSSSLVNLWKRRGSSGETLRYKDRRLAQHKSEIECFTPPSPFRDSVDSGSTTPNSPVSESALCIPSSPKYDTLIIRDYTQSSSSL

| SMILES | IC50 [µM] |
| --- | --- |
| CC(c1noc(-c2cccc(Cl)c2)n1)N1CCN(c2nccnc2C#N)CC1 (centres unmarked) [Example 15.11, 3-(4-{1-[5-(3-chlorophenyl)-1,2,4-oxadiazol-3-yl]ethyl}piperazin-1-yl) pyrazine-2-carbonitrile] | 0.101 |
| N#Cc1ccc(N2CCN(Cc3cc(-c4cc(Cl)ccc4F)on3)CC2)nc1 [Example 16.1, 6-(4-{[5-(5-chloro-2-fluorophenyl)isoxazol-3-yl]methyl}piperazin-1-yl) nicotinonitrile] | 0.199 |
